Data reported in patent US20210267939A1, “COMPOSITIONS AND METHODS FOR TREATING NAFLD/NASH AND RELATED DISEASE PHENOTYPES” (priority 2018, published 2021).
“Also recorded” adds a separate entry of the source.

Columns and labels:
Assay type in all cases: in vivo
ATP citrate lyase (ACL) = experiment: Immunoblot of phospho-ser454 and total ACL in liver of treated Zucker fatty rats; conditions: ZFR, BT2 vs vehicle
Method: (§1) Individually housed, male 12 week-old Zucker fatty rats (ZFR, Charles River Laboratories) maintained on a custom control low fat (LF) diet (A11072001, Research Diets) were used for the BDK inhibition and PPM1K overexpression studies. For the BDK inhibition study, ZFR were administered the small molecule BDK inhibitor 3,6-dichlorobenzo[b]thiophene-2-carboxylic acid (BT2, Sigma) daily at a dose of 20 mg/kg dissolved in 200 ul of sterile dimethylsulfoxide by i.p. injection for 7 days. The control group was administered an equal volume of vehicle each day. On day 6, following an overnight fast, ZFR were subjected to a 1 g/kg i.p. glucose tolerance test (GTT) precisely 1 hr after administration of BT2 (20 mg/kg i.p.) or vehicle. The glucose tolerance test was performed as described (White, et al., 2016). Following the GTT, rats were returned to their normal cages and provided free access to food and water. Indirect calorimetry was performed in a second cohort of BT2 treated rats on day 6 of BT2 administration. […]
(§2) Immunoblotting: Tissue lysates used for immunoblotting were prepared in Cell Lysis Buffer (Cell Signaling Technologies) containing protease inhibitor tablets (Roche), phosphatase inhibitor cocktails 2 and 3 (Sigma), and 10 mM PMSF. […] Immunoblots were developed using a Li-Cor Odyssey CLx and quantified using the Li-Cor software.

BCKDH = experiment: Tissue BCKDH activity assay in treated Zucker fatty rats; conditions: ZFR, BT2 20 mg/kg i.p. daily for one week, vs vehicle
Method: (§3) Individually housed, male 12 week-old Zucker fatty rats (ZFR, Charles River Laboratories) maintained on a custom control low fat (LF) diet (A11072001, Research Diets) were used for the BDK inhibition and PPM1K overexpression studies. For the BDK inhibition study, ZFR were administered the small molecule BDK inhibitor 3,6-dichlorobenzo[b]thiophene-2-carboxylic acid (BT2, Sigma) daily at a dose of 20 mg/kg dissolved in 200 ul of sterile dimethylsulfoxide by i.p. injection for 7 days. The control group was administered an equal volume of vehicle each day. On day 6, following an overnight fast, ZFR were subjected to a 1 g/kg i.p. glucose tolerance test (GTT) precisely 1 hr after administration of BT2 (20 mg/kg i.p.) or vehicle. The glucose tolerance test was performed as described (White, et al., 2016). Following the GTT, rats were returned to their normal cages and provided free access to food and water. Indirect calorimetry was performed in a second cohort of BT2 treated rats on day 6 of BT2 administration. Here ad-libitum fed rats were injected with BT2 (20 mg/kg i.p.) or vehicle immediately prior to being placed in an eight-chamber Oxymax system (Columbus Instruments) for seven hours. During their time in the metabolic cages all rats had free access to food and water. The next morning, rats were euthanized in the fed state precisely 1 hr following a final dose of BT2 (20 mg/kg i.p.) or vehicle.
For the PPM1K overexpression study, male 12 week-old ZFR were administered two doses of cyclosporine (15 mg/kg i.p., Novartis) prior to adenovirus administration. The first dose of cyclosporine was given 24 hours prior and the second dose was administered immediately prior to tail vein injection of Ad-CMV-PPM1K or Ad-CMV-GFP adenovirus (2×10^12 viral particles per kg). Both viruses use the CMV promoter to drive transgene expression. […]
BCKDH activity assay: Tissue BCKDH activity was measured. […] The ^14CO2 contained in the trap was counted in a Beckman Coulter LS6500 liquid scintillation counter.

Zucker fatty rats [1] = experiment: Other plasma analytes (lactate, lipids, ketones) in treated Zucker fatty rats; conditions: ZFR, BT2 20 mg/kg i.p. daily for one week, vs vehicle
Method: (§4) Individually housed, male 12 week-old Zucker fatty rats (ZFR, Charles River Laboratories) maintained on a custom control low fat (LF) diet (A11072001, Research Diets) were used for the BDK inhibition and PPM1K overexpression studies. For the BDK inhibition study, ZFR were administered the small molecule BDK inhibitor 3,6-dichlorobenzo[b]thiophene-2-carboxylic acid (BT2, Sigma) daily at a dose of 20 mg/kg dissolved in 200 ul of sterile dimethylsulfoxide by i.p. injection for 7 days. The control group was administered an equal volume of vehicle each day. […]
(§5) Plasma concentrations of the alpha-keto acids of leucine (α-keto-isocaproate, KIC), isoleucine (α-keto-β-methylvalerate, KMV) and valine (α-keto-isovalerate, KIV) were measured by LC-MS as previously described (Glynn et al., 2015; White et al., 2016). Other plasma analytes were measured on a Beckman DxC600 autoanalyzer, using reagents for lactate, total cholesterol, and triglycerides from Beckman, and non-esterified fatty acids (NEFA) and ketones (total and 3-hydroxybutyrate) from Wako (Richmond, Va.). Glycerol was measured using reagents from TG-B by Roche Diagnostics (Indianapolis, Ind.). Liver triglycerides were quantified using the triglyceride quantification kit from Abcam. Plasma insulin concentrations were measured with a Millipore EMD Rat insulin ELISA kit.

BCKDH e1a = experiment: Immunoblot of phospho-ser293 BCKDH e1a in tissues of treated Zucker fatty rats; conditions: ZFR, BT2 20 mg/kg i.p. daily for one week, vs vehicle
Method: as §1, §2

Zucker fatty rats [2] = experiment: Liver triacylglyceride content in treated Zucker fatty rats; conditions: ZFR, BT2 20 mg/kg i.p. daily for one week, vs vehicle
Method: as §4, §5

Zucker fatty rats [3] = experiment: Indirect calorimetry in BT2-treated Zucker fatty rats; conditions: ZFR, BT2 20 mg/kg i.p., day 6, hours following administration
Method: as §3, with “The next morning, rats were euthanized in the fed state precisely 1 hr following a final dose of BT2 (20 mg/kg i.p.) or vehicle.” left out

Zucker fatty rats [4] = experiment: Circulating BCAA and BCKA in treated Zucker fatty rats; conditions: ZFR, BT2 20 mg/kg i.p. daily for one week, vs vehicle
Method: as §4
(§6) Metabolite profiling: Amino acids were measured in plasma and liver samples, and acylcarnitines in liver samples. […]
as §5, with “Plasma insulin concentrations were measured with a Millipore EMD Rat insulin ELISA kit.” left out

Zucker fatty rats [5] = experiment: 1 g/kg i.p. glucose tolerance test in treated Zucker fatty rats; conditions: ZFR, BT2 20 mg/kg i.p., day 6, 1 g/kg i.p. glucose, vs vehicle
Method: as §4, §5

Zucker fatty rats [6] = experiment: Tissue acylcarnitine profiling in treated Zucker fatty rats; conditions: ZFR, BT2 20 mg/kg i.p. daily for one week, vs vehicle
Method: as §3, with “The next morning, rats were euthanized in the fed state precisely 1 hr following a final dose of BT2 (20 mg/kg i.p.) or vehicle.” left out
as §6

O=C(O)c1sc2cc(Cl)ccc2c1Cl [BT2, 3,6-dichlorobenzo[b]thiophene-2-carboxylic acid]
ACL phosphorylation on ser454, immunoblot of liver lysates (ATP citrate lyase (ACL)): markedly less
abundance of total ACL protein in liver (ATP citrate lyase (ACL)): trend for lower abundance
BCKDH enzyme activity in heart (BCKDH): increased
BCKDH enzyme activity in liver (BCKDH): increased
BCKDH enzyme activity in skeletal muscle (BCKDH): small increment
circulating TG, cholesterol, glycerol, non-esterified fatty acids (NEFA), or ketones (Zucker fatty rats [1]): no effects
lactate in circulation (Zucker fatty rats [1]): lower levels
BCKDH phosphorylation in skeletal muscle (BCKDH e1a): not associated with a detectable change
BCKDH phosphorylation on serine 293 of the e1a subunit in liver and heart (BCKDH e1a): lower levels
hepatic TG levels (Zucker fatty rats [2]): significantly lower
respiratory exchange ratio (RER) (Zucker fatty rats [3]): lowered
circulating BCAA levels (Zucker fatty rats [4]): lowered
circulating branched-chain α-ketoacids (BCKA) (Zucker fatty rats [4]; 20 mg/kg): more dramatic lowering; also recorded: potently lowers
glucose excursion during ipGTT (Zucker fatty rats [5]): significantly smaller
insulin excursion during ipGTT (Zucker fatty rats [5]): significantly smaller
even chain acyl-carnitines in liver (Zucker fatty rats [6]): increases
even chain acyl-carnitines in skeletal muscle (Zucker fatty rats [6]): but not in skeletal muscle
